From patent US9120749B2, “Quinoline derivatives and MELK inhibitors containing the same” (ONCOTHERAPY SCIENCE, INC., priority 2010, dated 2015)
Counter-ions that a name gives are not always drawn.

Assays:
[1] = biological target: MELK (Homo sapiens, UniProt Q14680); test: Kinase assay: MELK activity, phosphorylation of FITC-labeled histone H3 peptide measured by IMAP fluorescence polarization; format: biochemical; conditions: MELK kinase assay, IMAP fluorescence polarization, 50 micro-M ATP; read-out: IC50 (μM) (kinase assay)
Summary of the method: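 A FITC-labelled histone H3 peptide served as substrate, with compounds serially diluted to 1% DMSO final. Reactions were stopped with three volumes of IMAP progressive binding solution. After 0.5 h at room temperature, fluorescence polarization was read.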

[2] = test system: T47D cells; test: Cell-based assay: anti-proliferative activity, Cell Counting Kit-8, 72 hours (T47D); conditions: Homo sapiens, T47D, 72 h
Summary of the method: (§1)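 T47D, A549 and BT-549 cells, with MELK-negative HT-1197 as control (MELK status checked by western blot), seeded at 2,000–3,000 cells/well. Growth measured by CCK-8 72 hours after inhibitor exposure; IC50 values calculated.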

[3] = test system: A549 cells; test: Cell-based assay: anti-proliferative activity, Cell Counting Kit-8, 72 hours (A549); conditions: Homo sapiens, A549, 72 h, 72 hours
Summary of the method: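 Cell Counting Kit-8 read-out of A549 growth after 72 hours of inhibitor exposure, cells plated in 96-well format. Values reported as IC50.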

[4] = test system: HT-1197 cells; test: Cell-based assay: anti-proliferative activity, Cell Counting Kit-8, 72 hours (HT-1197, negative control without MELK expression); conditions: Homo sapiens, HT1197, 72 h, HT1197 cells (negative control), 72 hours
Summary of the method: as §1

[5] = test system: 22Rv1 cells; test: Cell-based assay: anti-proliferative activity, Cell Counting Kit-8, 72 hours (22Rv1); conditions: Homo sapiens
[6] = test system: DU4475 cells; test: Cell-based assay: anti-proliferative activity, Cell Counting Kit-8, 72 hours (DU4475); conditions: Homo sapiens, DU-4475

MELK, sequence (Q14680 whole entry, looked up): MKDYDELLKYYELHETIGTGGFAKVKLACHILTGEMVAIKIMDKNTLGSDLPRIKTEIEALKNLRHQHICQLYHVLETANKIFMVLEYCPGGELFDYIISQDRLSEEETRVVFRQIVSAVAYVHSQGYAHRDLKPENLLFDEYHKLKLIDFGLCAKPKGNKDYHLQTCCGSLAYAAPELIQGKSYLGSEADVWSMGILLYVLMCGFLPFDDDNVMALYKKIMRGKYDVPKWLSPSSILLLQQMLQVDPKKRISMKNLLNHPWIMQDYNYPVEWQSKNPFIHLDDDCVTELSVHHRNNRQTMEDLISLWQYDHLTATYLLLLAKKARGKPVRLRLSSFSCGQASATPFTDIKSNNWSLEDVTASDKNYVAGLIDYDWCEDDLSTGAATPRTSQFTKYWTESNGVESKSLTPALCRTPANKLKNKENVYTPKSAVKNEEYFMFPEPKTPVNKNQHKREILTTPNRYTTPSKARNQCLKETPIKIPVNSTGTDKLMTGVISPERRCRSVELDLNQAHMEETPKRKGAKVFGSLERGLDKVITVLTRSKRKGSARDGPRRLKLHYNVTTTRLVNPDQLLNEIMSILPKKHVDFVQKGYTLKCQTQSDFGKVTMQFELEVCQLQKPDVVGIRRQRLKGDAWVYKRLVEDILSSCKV

SMILES	IC50 [1] [µM]	IC50 [2] [µM]	IC50 [3] [µM]	IC50 [4] [µM]	IC50 [5] [µM]	IC50 [6] [µM]
COc1cc(-c2ccc3ncc(C(=O)C4CCCC4)c(N[C@H]4CC[C@H](CN(C)C)CC4)c3c2)cc(Cl)c1O [Example 916, (6-(3-chloro-4-hydroxy-5-methoxy-phenyl)-4-((1R,4R)-4-((dimethyl-amino)methyl)cyclohexyl)amino) quinolin-3-yl)(cyclopentyl) methanone hydrochloride]	0.0048	1.2	1.1	3.1	1.5	1
CN(C)CCOc1ccc(Nc2c(S(C)(=O)=O)cnc3ccc(-c4cc(Cl)c(O)c(Cl)c4)cc23)cn1 [Example 884, 2,6-dichloro-4-(4-((6-(2-(dimethylamino)ethoxy)pyridin-3-yl)amino)-3-(methylsulfonyl)quinolin-6-yl)phenol hydrochloride]	0.0035	0.91	2.1	13	4.1	0.51
CC(=O)c1cnc2ccc(-c3cc(F)c(O)c(Cl)c3)cc2c1Nc1cnc(C)c(CCN2CCCC2)c1 [Example 867, 1-(6-(3-chloro-5-fluoro-4-hydroxyphenyl)-4-((6-methyl-5-(2-(pyrrolidin-1-yl)ethyl)pyridin-3-yl)amino)quinolin-3-yl)ethanone]	0.014	2.9	1.6	53	4.6	1.3
CC(=O)c1cnc2ccc(-c3ccc4[nH]ncc4c3)cc2c1N[C@H]1CC[C@H](CN(C)C)CC1 [Example 910, 1-(4-((1R,4R)-4-((dimethylamino)methyl)cyclohexyl)amino)-6-(1H-indazol-5-yl)quinolin-3-yl)ethanone hydrochloride]	0.1	6	2.6	9.8	3.4	5.4
CC(=O)c1cnc2cc(F)c(-c3cc(Cl)c(O)c(Cl)c3)cc2c1N[C@H]1CC[C@H](CN(C)C)CC1 [Example 903, 1-(6-(3,5-dichloro-4-hydroxyphenyl)-4-((1R,4R)-4-((dimethylamino)methyl)cyclohexyl)amino)-7-fluoroquinolin-3-yl)ethanone hydrochloride]	0.0017	0.55	0.36	1.5	0.27	0.16
CC(=O)c1cnc2ccc(-c3ccc(O)cc3)cc2c1N[C@H]1CC[C@H](CN(C)C)CC1 [Example 935, 1-(4-(1R,4R)-4-((dimethylamino)methyl)cyclohexylamino)-6-(4-hydroxyphenyl)quinolin-3-yl) ethanone dihydrochloride]	0.08	1.6	0.86	4.3	0.53	1.5
CN1CCC(n2cc(Nc3c(C(=O)C(C)(C)C)cnc4ccc(-c5cc(Cl)c(O)c(Cl)c5)cc34)cn2)CC1 [Example 931, 1-(6-(3,5-dichloro-4-hydroxyphenyl)-4-((1-(1-methylpiperidin-4-yl)-1H-pyrazol-4-yl)amino)quinolin-3-yl)-2,2-dimethylpropan-1-one hydrochloride]	0.0062	1.4	1.8	100	2.1	1.5
CC(=O)c1cnc2ccc(-c3cc(F)c(O)c(Cl)c3)cc2c1N[C@H]1CC[C@H](NC(=O)C2CCCN2C)CC1 (stereo partly drawn) [Example 874, N-(1R,4R)-4-((3-acetyl-6-(3-chloro-5-fluoro-4-hydroxyphenyl)quinolin-4-yl)amino)cyclohexyl)-1-methylpyrrolidine-2-carboxamide hydrochloride]	0.016	0.04	0.14	1	0.18	0.12
CC(=O)c1cnc2cc(F)c(-c3cc(Cl)c(O)c(Cl)c3)cc2c1N[C@H]1CC[C@H](CN2CCCC2)CC1 [Example 923, 1-(6-(3,5-dichloro-4-hydroxyphenyl)-7-fluoro-4-((1R,4R)-4-(pyrrolidin-1-ylmethyl)cyclohexyl)amino)quinolin-3-yl)ethanone hydrochloride]	0.007	0.63	0.39	2.5	0.29	0.2
CS(=O)(=O)c1cnc2ccc(-c3cc(Cl)c(O)c(Cl)c3)cc2c1Nc1ccc(N2CCCC(N)C2)nc1 (stereo not drawn) [Example 913, 4-(4-(6-(3-aminopiperidin-1-yl)pyridin-3-ylamino)-3-(methylsulfonyl)quinolin-6-yl)-2,6-dichlorophenol]	0.00094	0.27	2.6	100	0.58	0.025
CN1CCC(n2cc(Nc3c(S(C)(=O)=O)cnc4ccc(-c5cc(F)c(O)c(Cl)c5)cc34)cn2)CC1 [Example 900, 2-chloro-6-fluoro-4-(4-((1-(1-methyl-piperidin-4-yl)-1H-pyrazol-4-yl)amino)-3-(methylsulfonyl)quinolin-6-yl)phenol hydrochloride]	0.0032	1.6	10	10	3.1	0.54
CC(=O)c1cnc2ccc(-c3ccc4nc[nH]c4c3)cc2c1Nc1cnn(C2CCN(C)CC2)c1 [Example 895, 1-(6-(1H-benzo[d]imidazol-6-yl)-4-((1-(1-methylpiperidin-4-yl)-1H-pyrazol-4-yl)amino)quinolin-3-yl)ethanone hydrochloride]	0.065	0.94	4	9.3	2.2	9.1
CC(=O)c1cnc2ccc(-c3cc(Cl)c(O)c(Cl)c3)cc2c1N[C@H]1CC[C@H](NC(=O)CN(C)C)CC1 [Example 877, N-(1R,4R)-4-((3-acetyl-6-(3,5-dichloro-4-hydroxyphenyl)quinolin-4-yl)amino)cyclohexyl)-2-(dimethylamino)acetamide hydrochloride]	0.0027	0.11	0.2	2	0.18	0.11
CC(=O)c1cnc2ccc(-c3cn[nH]c3)cc2c1N[C@H]1CC[C@H](CN(C)C)CC1 [Example 912, 1-(4-((1R,4R)-4-((dimethylamino)methyl)cyclohexyl)amino)-6-(1H-pyrazol-4-yl)quinolin-3-yl)ethanone hydrochloride]	0.074	4.2	1.3	3	1.7	1.4
CC(=O)c1cnc2ccc(-c3cc(Cl)c(O)c(Cl)c3)cc2c1Nc1cc(CCN2CCCC2)cnc1C [Example 897, 1-(6-(3,5-dichloro-4-hydroxyphenyl)-4-((2-methyl-5-(2-(pyrrolidin-1-yl)ethyl)pyridin-3-yl)amino)quinolin-3-yl)ethanone]	0.021	4.5	8.5	71	11	8.8
CN1CCC(n2cc(Nc3c(C(=O)C(C)(C)C)cnc4ccc(-c5cc(F)c(O)c(Cl)c5)cc34)cn2)CC1 [Example 930, 1-(6-(3-chloro-5-fluoro-4-hydroxy-phenyl)-4-((1-(1-methylpiperidin-4-yl)-1H-pyrazol-4-yl)amino)quinolin-3-yl)-2,2-dimethylpropan-1-one hydrochloride]	0.017	1.7	4.4	14	2.5	1.3
CC(=O)c1cnc2ccc(-c3cc(F)c(O)c(Cl)c3)cc2c1N[C@H]1CC[C@H](NC(=O)[C@H](C)N)CC1 (stereo in doubt) [Example 878]	0.0079	0.027	0.83	21	0.096	0.03
CN(C)CCOc1ccc(Nc2c(S(C)(=O)=O)cnc3ccc(-c4cc(F)c(O)c(Cl)c4)cc23)cn1 [Example 885, 2-chloro-4-(4-((6-(2-(dimethylamino)ethoxy)pyridin-3-yl)amino)-3-(methylsulfonyl)quinolin-6-yl)-6-fluorophenol hydrochloride]	0.0083	0.7	3	10	2.5	0.62
CC(=O)c1cnc2ccc(-c3ccc4cc(O)ccc4c3)cc2c1N[C@H]1CC[C@H](CN(C)C)CC1 [Example 929, 1-(4-((1R,4R)-4-((dimethylamino)methyl)cyclohexyl)amino)-6-(6-hydroxynaphthalen-2-yl)quinolin-3-yl)ethanone hydrochloride]	0.064	3.3	0.87	3.9	0.71	2.8
CC(=O)c1cnc2cc(F)c(-c3cc(F)c(O)c(Cl)c3)cc2c1N[C@H]1CC[C@H](CN(C)C)CC1 [Example 904, 1-(6-(3-chloro-5-fluoro-4-hydroxy-phenyl)-4-((1R,4R)-4-((dimethylamino)methyl)cyclohexyl)amino)-7-fluoro-quinolin-3-yl)ethanone hydrochloride]	0.017	0.51	0.43	1.6	0.33	0.26
